Data set [1] concerns the target T1, human FXR alpha ligand binding domain (Homo sapiens, UniProt Q96RI1).
T1 construct: made in house; host or cells: E. coli BL21(DE3), vector pDEST15
T1 sequence (Q96RI1 187-472 isoform Q96RI1-2): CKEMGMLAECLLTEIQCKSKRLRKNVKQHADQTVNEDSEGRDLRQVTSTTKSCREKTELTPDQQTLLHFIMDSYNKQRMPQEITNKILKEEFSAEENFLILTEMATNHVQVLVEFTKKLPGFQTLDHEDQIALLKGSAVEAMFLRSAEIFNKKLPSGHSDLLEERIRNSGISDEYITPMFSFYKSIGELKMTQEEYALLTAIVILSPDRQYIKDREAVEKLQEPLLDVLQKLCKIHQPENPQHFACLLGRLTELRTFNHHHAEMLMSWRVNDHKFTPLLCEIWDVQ
Kind of data set: FRET activity assay (ligand mediated cofactor peptide interaction, LANCE). Format: biochemical. To be noted: GST-FXR-LBD / biotinylated SRC-1 peptide (676-700). The protocol:
Determination of a ligand mediated cofactor peptide interaction to quantify ligand binding to the nuclear receptor FXR was performed as follows.
Preparation of human FXR alpha ligand binding domain: The human FXRalpha LBD was expressed in E. coli strain BL21(DE3) as an N-terminally GST tagged fusion protein. The DNA encoding the FXR ligand binding domain was cloned into vector pDEST15 (Invitrogen). Expression was under control of an IPTG inducible T7 promoter. The amino acid boundaries of the ligand binding domain were amino acids 187-472 of Database entry NM_005123 (RefSeq). Expression and purification of the FXR-LBD: An overnight preculture of a transformed E. coli strain was diluted 1:20 in LB-Ampicillin medium and grown at 30° C. to an optical density of OD600=0.4-0.6. Gene expression was then induced by addition of 0.5 mM IPTG. Cells were incubated an additional 6 h at 30° C., 180 rpm. Cells were collected by centrifugation (7000×g, 7 min, rt). Per liter of original cell culture, cells were resuspended in 10 mL lysis buffer (50 mM Glucose, 50 mM Tris pH 7.9, 1 mM EDTA and 4 mg/mL lysozyme) and left on ice for 30 min. Cells were then subjected to sonication and cell debris removed via centrifugation (22000×g, 30 min, 4° C.). Per 10 mL of supernatant 0.5 mL prewashed Glutathione 4B sepharose slurry (Qiagen) was added and the suspension kept slowly rotating for 1 h at 4° C. Glutathione 4B sepharose beads were pelleted by centrifugation (2000×g, 15 sec, 4° C.) and washed twice in wash buffer (25 mM Tris, 50 mM KCl, 4 mM MgCl2 and 1M NaCl). The pellet was resuspended in 3 mL elution buffer per liter of original culture (elution buffer: 20 mM Tris, 60 mM KCl, 5 mM MgCl2 and 80 mM glutathione added immediately prior to use as powder). The suspension was left rotating for 15 min at 4° C., the beads pelleted and eluted again with half the volume of elution buffer than the first time. The eluates were pooled and dialysed overnight in 20 mM Hepes buffer (pH 7.5) containing 60 mM KCl, 5 mM MgCl2 as well as 1 mM dithiothreitol and 10% (v/v) glycerol. The protein was analysed by SDS-Page.
The method measures the ability of putative ligands to modulate the interaction between the purified bacterial expressed FXR ligand binding domain (LBD) and a synthetic biotinylated peptide based on residues 676-700 of SRC-1 (LCD2, 676-700). The sequence of the peptide used was B-[…]-COOH (SEQ ID NO: 1) where the N-terminus was biotinylated (B). The ligand binding domain (LBD) of FXR was expressed as fusion protein with GST in BL-21 cells using the vector pDEST15. Cells were lysed by sonication, and the fusion proteins purified over glutathione sepharose (Pharmacia) according to the manufacturers instructions. For screening of compounds for their influence on the FXR-peptide interaction, the Perkin Elmer LANCE technology was applied. This method relies on the binding dependent energy transfer from a donor to an acceptor fluorophor attached to the binding partner of interest. For ease of handling and reduction of background from compound fluorescence LANCE technology makes use of generic fluorophore labels and time resolved detection Assays were done in a final volume of 25 μL in a 384 well plate, in a Tris-based buffer (20 mM Tris-HCl pH 7.5; 60 mM KCl, 5 mM MgCl2; 35 ng/μL BSA), containing 20-60 ng/well recombinantly expressed FXR-LBD fused to GST, 200-600 nM N-terminally biotinylated peptide, representing SRC1 aminoacids 676-700, 200 ng/well Streptavidin-xlAPC conjugate (Prozyme) and 6-10 ng/well Eu W1024-antiGST (Perkin Elmer). DMSO content of the samples was kept at 1%. After generation of the assay mix and diluting the potentially FXR modulating ligands, the assay was equilibrated for 1 h in the dark at rt in FIA-plates black 384 well (Greiner). The LANCE signal was detected by a Perkin Elmer VICTOR2V™ Multilabel Counter. The results were visualized by plotting the ratio between the emitted light at 665 and 615 nm. […]
(In general: TR-FRET usually uses a lanthanide donor and a delayed reading to cut background.)

For data set [2], the target named is T2, FXR ligand binding domain (Homo sapiens, UniProt Q96RI1).
T2 construct: expressed in transfected cells; host or cells: HEK293 (DSMZ), transient transfection with pCMV-BD-FXR-LBD, pFR-Luc and pRL-CMV
T2 sequence (Q96RI1 187-472 isoform Q96RI1-2): T1 sequence (Q96RI1 187-472 isoform Q96RI1-2)
Briefly: Mammalian one hybrid (M1H) Gal4 reporter gene assay in HEK293 cells. Format: cell-based. The conditions noted are these: Gal4-FXR-LBD, luciferase reporter, 16 h. The protocol:
Determination of a ligand mediated Gal4 promoter driven transactivation to quantify ligand binding mediated activation of FXR was performed as follows.
The cDNA part encoding the FXR ligand binding domain was cloned into vector pCMV-BD (Stratagene) as a fusion to the yeast GAL4 DNA binding domain under the control of the CMV promoter. The amino acid boundaries of the ligand binding domain were amino acids 187-472 of Database entry NM_005123 (RefSeq). The plasmid pFR-Luc (Stratagene) was used as the reporter plasmid, containing a synthetic promoter with five tandem repeats of the yeast GAL4 binding sites, driving the expression of the Photinus pyralis (American firefly) luciferase gene as the reporter gene. In order to improve experimental accuracy the plasmid pRL-CMV (Promega) was cotransfected. pRL-CMV contains the constitutive CMV promoter, controlling the expression of the Renilla reniformis luciferase. All Gal4 reporter gene assays were done in HEK293 cells (obtained from DSMZ, Braunschweig, Germany) grown in MEM with L-Glutamine and Earle's BSS supplemented with 10% fetal bovine serum, 0.1 mM nonessential amino acids, 1 mM sodium pyruvate, and 100 units Penicilin/[…] per mL at 37° C. in 5% CO2. Medium and supplements were obtained from Invitrogen. For the assay, […] cells were plated per well in 96 well plates in 100 μL per well MEM without Phenol Red and L-Glutamine and with Earle's BSS supplemented with 10% charcoal/dextran treated FBS (HyClone, South Logan, Utah), 0.1 mM nonessential amino acids, 2 mM glutamine, 1 mM sodium pyruvate, and 100 units Penicilin/[…] per mL, incubated at 37° C. in 5% CO2. The following day the cells were >90% confluence. Medium was removed and cells were transiently transfected using 20 μL per well of an OptiMEM-polyethylene-imine-based transfection-reagent (OptiMEM, Invitrogen; Polyethyleneimine, Aldrich Cat No. 40, 827-7) including the three plasmids described above. MEM with the same composition as used for plating cells was added 2-4 h after addition of transfection mixture. Then compound stocks, prediluted in MEM were added (final vehicle concentration not exceeding 0.1%). Cells were incubated for additional 16 h before firefly and renilla luciferase activities were measured sequentially in the same cell extract using a Dual-Light-Luciferase-Assay system (Dyer et al., Anal. Biochem. 2000, 282, 158-161). All experiments were done in triplicates.
(Reporter assays use an easily measured gene product as a stand-in for the process of interest.)

A short description of data set [3]: Plasma drug exposure in cynomolgus monkey after oral dosing. Format: in vivo. An excerpt: (§1) Each dosing group consisted of three male Cynomolgus monkeys.
Another data set deals with FGF19. Briefly: In vivo pharmacodynamics in cynomolgus monkey: plasma FGF19 (ELISA). To be noted: oral.
From the text: as §1

Results on 8 molecules are retold here after US20190308962A1, “FXR (NR1H4) Modulating Compounds” (GILEAD SCIENCES, INC., priority 2016, published 2019).

Usually EC50 stands for the midpoint of the concentration-response curve.

In the case of `O=C(O)c1ccnc(N2CC(O)(c3ccc(OCc4c(-c5ccc(F)cc5F)noc4C4CC4)cc3Cl)C2)c1` [Example 1, 2-(3-(2-chloro-4-((5-cyclopropyl-3-(2,4-difluorophenyl)isoxazol-4-yl)methoxy)phenyl)-3-hydroxyazetidin-1-yl)isonicotinic Acid], the EC50 in data set [1] turned out to be 263 nM; in data set [2], 3000 nM.

`O=C(O)c1ccnc(N2CC(O)(c3ccc(OCc4c(-c5c(Cl)cc(F)cc5Cl)noc4C4CC4)cc3Cl)C2)c1` [Example 2, 2-(3-(2-chloro-4-((5-cyclopropyl-3-(2,6-dichloro-4-fluorophenyl)isoxazol-4-yl)methoxy)phenyl)-3-hydroxyazetidin-1-yl)isonicotinic Acid]: the half-maximal effective concentration (EC50) in data set [1] was found to be 25 nM; in data set [2] it was 831 nM.

With `O=C(O)c1cnc(N2CC(O)(c3ccc(OCc4c(-c5c(Cl)cc(F)cc5Cl)noc4C4CC4)cc3Cl)C2)c(F)c1` [Example 3, 6-(3-(2-chloro-4-((5-cyclopropyl-3-(2,6-dichloro-4-fluorophenyl)isoxazol-4-yl)methoxy)phenyl)-3-hydroxyazetidin-1-yl)-5-fluoronicotinic Acid], the figures for the EC50 in data set [1] and in data set [2] were 7.4 nM and 3.8 nM, respectively. In data set [3] (300 mg/kg), the “Maximal AUC, compared between the two compounds” value is reported as “comparable”. For the same molecule, the “Plasma exposure with increasing doses” value in data set [3] (3 to 300 mg/kg) was “Dose-dependent increases in plasma exposure”. Also, in the data set on FGF19 (3 to 300 mg/kg), the “Plasma FGF19 response to increasing doses” value was “dose-dependently increased plasma FGF19”. The “Plasma FGF19 Cmax” value with FGF19 (highest dose (300 mg/kg)) stood at 16000 pg/mL.

For the molecule `Cc1onc(-c2c(Cl)cc(F)cc2Cl)c1COc1ccc(C2(O)CN(c3ncc(C(=O)O)cc3F)C2)c(Cl)c1` [Example 4, 6-(3-(2-chloro-4-((3-(2,6-dichloro-4-fluorophenyl)-5-methylisoxazol-4-yl)methoxy)phenyl)-3-hydroxyazetidin-1-yl)-5-fluoronicotinic Acid], the EC50 in data set [1] came out at 35 nM; in data set [2], 176 nM.

As for `O=C(O)c1cnc(N2CC(O)(c3ccc(OCc4c(C5CC5)cnn4-c4c(Cl)cc(F)cc4Cl)cc3Cl)C2)c(F)c1` [Example 5, 6-(3-(2-chloro-4-((4-cyclopropyl-1-(2,6-dichloro-4-fluorophenyl)-1H-pyrazol-5-yl)methoxy)phenyl)-3-hydroxyazetidin-1-yl)-5-fluoronicotinic Acid], the figures for the EC50 in data set [1] and in data set [2] were 18 nM and 8.6 nM, respectively.

For the molecule `COc1ncc(C(=O)O)cc1[C@H]1C[C@](O)(c2ccc(OCc3c(-c4c(Cl)cc(F)cc4Cl)noc3C3CC3)cc2Cl)C1` [Example 6, 5-((1S,3S)-3-(2-chloro-4-((5-cyclopropyl-3-(2,6-dichloro-4-fluorophenyl)isoxazol-4-yl)methoxy)phenyl)-3-hydroxycyclobutyl)-6-methoxynicotinic Acid], the figures for the EC50 in data set [1] and in data set [2] were 49 nM and 353 nM, respectively.

With `O=C(NCCS(=O)(=O)O)c1cnc(N2CC(O)(c3ccc(OCc4c(-c5c(Cl)cc(F)cc5Cl)noc4C4CC4)cc3Cl)C2)c(F)c1` [Example 7, 2-(6-(3-(2-chloro-4-((5-cyclopropyl-3-(2,6-dichloro-4-fluorophenyl)isoxazol-4-yl)methoxy)phenyl)-3-hydroxyazetidin-1-yl)-5-fluoronicotinamido)ethane-1-sulfonic Acid], the results for the EC50 in data set [1] and in data set [2] were 6.9 nM and 1700 nM, respectively.

With `O=C(O)CNC(=O)c1cnc(N2CC(O)(c3ccc(OCc4c(-c5c(Cl)cc(F)cc5Cl)noc4C4CC4)cc3Cl)C2)c(F)c1` [Example 8, (6-(3-(2-chloro-4-((5-cyclopropyl-3-(2,6-dichloro-4-fluorophenyl)isoxazol-4-yl)methoxy)phenyl)-3-hydroxyazetidin-1-yl)-5-fluoronicotinoyl)glycine], the EC50 in data set [1] turned out to be 8.1 nM; in data set [2], 1260 nM.
